Key:
[1] = system: Pseudomonas aeruginosa (ATCC #15692, PaO1); assay: Bacteriostatic effect on planktonic cultures with different bacterial inoculum sizes in SWF; type: cell-based; settings: 3 mM deferiprone in SWF
Protocol: An evaluation of possible bacteriostatic effect of deferiprone (3 mM) on the gram-negative bacterium Pseudomonas aeruginosa (ATCC #15692, PaO1) and effect of bacterial start concentrations was performed. Deferiprone (3 mM) was dissolved into Simulated Wound Fluid (SWF) (fetal bovine serum (FBS) and Peptone Water (PW) mixed in equal proportions, which correspond to the protein and electrolyte concentration of wound exudates (Emiko Aiba-Kojima, MD et.al Wound Rep Reg (2007) 15 511-520; Trengove, N et al Wound Rep Reg (1996) 4 1067-1927)). Bacterial concentrations ranging from 10−1×10^8 CFU/ml were inoculated into different test tubes +/− Deferiprone (3 mM) in SWF and incubated at 35° C. for 24 hrs before bacterial numbers were determined using petrifilm.

[2] = system: Pseudomonas aeruginosa (ATCC #15692, PaO1); assay: Bacterial growth in wells of Calgary biofilm device (petrifilm); type: cell-based; settings: inoculum 1×10^6 CFU/ml, 24, 48, 72 hrs
Protocol: (§1) An evaluation of possible bacteriostatic effect of deferiprone (3-6 mM) on the gram-negative bacterium Pseudomonas aeruginosa (ATCC #15692, PaO1) and connection to ability to form biofilm on a plastic surface, using the Calgary biofilm device (CBD) (Journal of Clinical Microbiology, June 1999, p. 1771-1776) was performed. This method utilizes 96-well microplates with lids containing 96 plastic cone shaped protrusions that extend into the wells of the plate. By submerging the plastic cones into bacterial solution, biofilm attachment to the pegs can be studied. Different concentrations of Deferiprone (0, 0.37, 0.75, 1.5, 3, 6 mM) were dissolved in Simulated Wound Fluid (SWF) and added to wells in the CBD plate. PaO1 was then inoculated at a total bacterial concentration of 1×10^6 CFU/ml and the lid was placed on the plate. Following incubation at 35° C. for 24, 48, 72 hrs, bacterial concentration from the wells were calculated using petrifilm and the plastic protrusions were analyzed for biofilm attachment using a luminescence kit that quantifies bacterial viability (Promega BacTiter-GLO).

[3] = system: Pseudomonas aeruginosa (ATCC #15692, PaO1); assay: Biofilm attachment to pegs of Calgary biofilm device (Promega BacTiter-GLO luminescence); type: cell-based
Protocol: as §1

[4] = system: PaO1 in a biofilm phenotype; assay: Bacteriostatic effect in collagen (wound-like matrix) gels, bacteria in biofilm phenotype; type: cell-based, Pseudomonas aeruginosa; settings: 3 mM deferiprone, different start concentrations, 24 hrs at 35° C.
Protocol: Collagen gels were created and inoculated with 1×10^6 CFU/ml PaO1. Gels were incubated for 24 hrs at 35° C. in order to obtain bacteria in biofilm phenotype. New collagen gels +/−3 mM deferiprone were created and different bacterial start concentrations were inoculated into the gels. Following 24 hrs incubation at 35° C., the gels were solubilized and bacterial counts were measured using petrifilm.

[5] = system: clinical wound isolates of Pseudomonas aeruginosa; assay: Effect on clinical wound isolates in SWF; type: cell-based; settings: 3 mM deferiprone in SWF, 24 hrs at 35° C., all isolates tested
Protocol: Bacteriostatic effect of deferiprone was tested on different clinical wound isolates of Pseudomonas aeruginosa. Isolates were typed according to known virulence factors (FIG. 9a) and subjected for treatment +/−3 mM deferiprone in SWF for 24 hrs at 35° C. Bacterial start concentrations and concentrations after treatment were measured using petrifilm.

[6] = system: Actinobacter baumannii; assay: Bacteriostatic effect on other gram-negative species in SWF; type: cell-based; settings: 3 mM deferiprone in SWF, 24 hrs at 35° C.
Protocol: (§2) The bacteriostatic effect of deferiprone was tested on other gram negative species than Pseudomonas aeruginosa in order to see if the bacteriostatic effect of deferiprone extends to other gram negative species. The following bacteria were tested: Actinobacter baumannii, Echerschia coli, Klebsiella pneumoniae +/−3 mM deferiprone in SWF for 24 hrs at 35° C. Bacterial start concentrations and concentrations after treatment were measured using petrifilm.

[7] = system: Echerschia coli; assay: as above; type: cell-based; settings: 3 mM deferiprone in SWF, 24 hrs at 35° C.
Protocol: as §2

[8] = system: Klebsiella pneumoniae; assay: as above; type: cell-based; settings: 3 mM deferiprone in SWF, 24 hrs at 35° C.
Protocol: as §2

[9] = system: PaO1; assay: Growth of planktonic PaO1 at sub-bacteriostatic concentrations in SWF; type: cell-based, Pseudomonas aeruginosa; settings: 1×10^6 CFU/ml, 72 hrs at 35° C.
[10] = system: virulence factor pyoverdine; assay: Pyoverdine levels in supernatants by LC-MS; type: cell-based, Pseudomonas aeruginosa; settings: 0.03 and 0.3 mM deferiprone in SWF, 72 hrs at 35° C.
Protocol: In order to evaluate if sub-bacteriostatic concentrations (<3 mM) of deferiprone have an effect on the virulence factor pyoverdine, supernatants of planktonically grown PaO1 (1×10^6 CFU/ml) +/− deferiprone at 0.3 and 0.03 mM in SWF were analyzed by LC-MS for pyoverdine after 72 hrs at 35° C.

`Cc1c(O)c(=O)ccn1C` [deferiprone] was tested. Which “bacterial concentration after 24 hrs” value ([1]; 35° C., 24 hrs) did it give?
The value was “equals the bacterial start concentration”.

And the “effect on growth of PaO1 in planktonic cultures” value ([1]; 35° C., 24 hrs, different start inoculums)?
The value was “true bacteriostatic effect”.

And the “toxicity to PaO1” value ([1]; different start inoculums)?
The value was “non-toxic”.

And the “effect on growth of PaO1 in CBD wells” value ([2]; 3 mM deferiprone in SWF)?
Its value is “bacteriostatic”.

And the “effect on growth of PaO1 in CBD wells” value ([2]; 6 mM deferiprone in SWF)?
Its value is “bacteriostatic”.

And the “biofilm formation on pegs of CBD plate” value ([3]; 3 mM deferiprone in SWF, 24, 48, 72 hrs)?
The value was “No biofilm was formed”.

And the “biofilm formation on pegs of CBD plate” value ([3]; 6 mM deferiprone in SWF, 24, 48, 72 hrs)?
Its value is “No biofilm was formed”.

What about the “biofilm formation on pegs of CBD plate (read-out signal)” value ([3]; all other concentrations (0.37, 0.75, 1.5 mM) of deferiprone in SWF) of the same molecule?
Its value is “full growth”.

And the “effect on growth of PaO1 in collagen gel” value [4]?
Its value is “a bacteriostatic effect is observed”.

And the “effect on growth of clinical wound isolates” value [5]?
Its value is “bacteriostatic effects”.

What about the “effect on growth of Actinobacter baumannii” value [6] of the same molecule?
The value was “sensitive”.

And the “effect on growth of Echerschia coli” value [7]?
The value was “same bacteriostatic effects”.

What about the “effect on growth of Klebsiella pneumoniae” value [8] of the same molecule?
The value was “sensitive”.

What about the “effect on growth characteristics of PaO1” value ([9]; 0.03 mM deferiprone in SWF) of the same molecule?
The value was “does not affect growth characteristics”.

What about the “effect on growth characteristics of PaO1” value ([9]; 0.3 mM deferiprone in SWF) of the same molecule?
The value was “does not affect growth characteristics”.

And the “pyoverdine levels in supernatants” value [10]?
The value was “dose-dependent decrease”.

From patent publication US20240157017A1, “A MEDICAL DRESSING COMPRISING A BACTERIOSTATIC COMPOSITION” (Mölnlycke Health Care AB, priority 2021, published 2024)
